Results taken from PMC6463675, “Panax ginseng Inhibits Metabolism of Diester Alkaloids by Downregulating CYP3A4 Enzyme Activity via the Pregnane X Receptor” (Evidence-based Complementary and Alternative Medicine : eCAM, 2019).

Key:
[1] = system: PXR; design: method as in PMID 23600156; settings: previous work of the authors; cited from earlier work
[2] = system: CYP3A4; test: Cocktail method: pharmacokinetics of probe drug midazolam after P. ginseng; settings: rats, ketoconazole 40 mg·kg^−1 intraperitoneal 3 days, midazolam 10 mg·kg^−1 caudal vein
[3] = target: T1, CYP2E1 (Homo sapiens, UniProt P05181); test: Specific inhibitor method in HLMs: diethyldithiocarbonate; type: in vitro ADME; settings: alkaloid 20 μM, DDTC 1 μM (CYP2E1), 37°C 60 min, P > 0.05
T1 construct: tissue Rild-biotech X008067; host or cells: human liver microsomes
Description: (§1) To screen the CYP isoforms for aconitine, mesaconitine, and hypaconitine metabolism, we used known inhibitors of the metabolism of aconitine, mesaconitine, and hypaconitine in HLMs. ANF (CYP1A2: 1 μM; CAS: […]), SPE (CYP2C9: 1 μM; CAS: 526-08-9), DDTC (CYP2E1: 1 μM; CAS: 148-18-5), and KEN (CYP3A4: 1 μM; CAS: 65277-42-1) were all from EFEBIO Co., Ltd., which were incubated separately with aconitine, mesaconitine, and hypaconitine (20 μM), HLMs, and NADPH under the same incubation conditions as mentioned above. […] The hepatic metabolism rate of the incubation solution with no inhibitor was used as the negative control. The HLM (Rild-biotech, shanghai, China, X008067 ) mixtures were incubated at 37°C for 60 min. NADPH was preincubated for 5 min before it was added to the system. Precooled acetonitrile/methanol (800 μL, 1:1, v/v) was added to stop the incubation. […] Aconitine, mesaconitine, and hypaconitine standards of different concentrations were added to the incubation system to obtain the standard curve.

[4] = target: T2, CYP3A4 (Homo sapiens, UniProt P08684); test: Specific inhibitor method in HLMs: ketoconazole; type: in vitro ADME; design: tissue Rild-biotech X008067; host or cells: human liver microsomes; settings: alkaloid 20 μM, KEN 1 μM (specific inhibitor for CYP3A), 37°C 60 min, n = 3
Description: as §1
Target sequence in this assay (P08684 whole entry): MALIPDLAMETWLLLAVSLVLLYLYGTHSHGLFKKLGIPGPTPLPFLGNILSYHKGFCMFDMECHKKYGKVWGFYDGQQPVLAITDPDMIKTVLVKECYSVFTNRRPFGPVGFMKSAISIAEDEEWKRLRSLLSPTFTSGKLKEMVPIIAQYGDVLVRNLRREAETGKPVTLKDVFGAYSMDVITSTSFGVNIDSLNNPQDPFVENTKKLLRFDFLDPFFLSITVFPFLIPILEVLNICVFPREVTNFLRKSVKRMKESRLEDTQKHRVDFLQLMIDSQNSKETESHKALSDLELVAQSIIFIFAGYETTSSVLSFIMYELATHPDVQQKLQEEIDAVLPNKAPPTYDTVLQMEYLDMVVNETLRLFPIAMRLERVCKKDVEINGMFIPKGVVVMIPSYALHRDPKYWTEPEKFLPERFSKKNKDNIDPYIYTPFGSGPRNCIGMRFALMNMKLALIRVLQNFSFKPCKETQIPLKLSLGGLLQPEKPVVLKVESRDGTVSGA

[5] = target: T2, CYP3A4; test: Kinetic analysis in recombinant human CYP3A4; type: in vitro ADME; design: purchased Corning 456202; host or cells: baculovirus infected insect cells (BTI-TN-5B1-4); settings: for in vitro mean intrinsic clearance rate by CYP3A4: CLint = Vmax/KM
Text: (§2) Recombinant human cytochrome P450 enzymes were obtained from Corning (USA, CYP3A4:456202; CYP1A2:456203; CYP2C9:456218; CYP2E1:456206). The activity were catalyzed by CYP3A4/CYP1A2/CYP2C9/CYP2E1, which were expressed from human CYP3A4/CYP1A2/CYP2C9/CYP2E1 cDNA, respectively, using a baculovirus expression system. Baculovirus infected insect cells (BTI-TN-5B1-4) were used to prepare these microsomes. These microsomes also contain cDNA-expressed humans P450 reductase and human cytochrome b5. A microsome preparation using wild type virus (Catalog No. 456201) was used as a control for native activities.
(§3) The kinetic parameters for the metabolism of aconitine, mesaconitine, and hypaconitine were determined by incubating increasing concentrations of aconitine, mesaconitine, and hypaconitine (5, 10, 20, and 40 μM) at 37°C for 90min with recombinant human CYP isoforms and NADPH under the incubation conditions described above. Precooled acetonitrile/methanol (800 μL, 1:1, v/v) was added to stop the incubation.
(§4) The compound reaction velocity (V) is expressed as V = (C0 – Ct)/T/Cp, where C0 and Ct are the initial and final concentrations of aconitine, mesaconitine, or hypaconitine in the incubation solution, respectively, T is the incubation time (min), and Cp is the protein concentration (mg·mL^−1 or nmol). The mean intrinsic clearance rate (CLint) for the in vitro incubation was estimated using Vmax/KM, where Vmax is the maximum velocity and KM is the Michaelis constant. All values are expressed as the mean ± standard deviation (SD).
Target sequence in this assay (P08684 2-503 limits assumed): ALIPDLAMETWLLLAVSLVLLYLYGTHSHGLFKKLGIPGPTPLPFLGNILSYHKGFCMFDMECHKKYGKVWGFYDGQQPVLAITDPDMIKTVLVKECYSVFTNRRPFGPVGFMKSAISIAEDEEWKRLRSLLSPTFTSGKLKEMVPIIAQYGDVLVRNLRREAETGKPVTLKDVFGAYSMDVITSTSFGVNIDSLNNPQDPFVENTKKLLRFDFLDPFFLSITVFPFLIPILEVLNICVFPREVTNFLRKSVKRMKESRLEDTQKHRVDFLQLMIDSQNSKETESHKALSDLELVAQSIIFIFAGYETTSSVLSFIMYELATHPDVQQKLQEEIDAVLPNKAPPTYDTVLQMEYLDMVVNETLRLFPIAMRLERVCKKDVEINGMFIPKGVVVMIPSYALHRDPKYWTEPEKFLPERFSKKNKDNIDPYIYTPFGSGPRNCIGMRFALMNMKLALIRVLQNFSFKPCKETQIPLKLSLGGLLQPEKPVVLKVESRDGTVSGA

[6] = system: CYP3A4; design: method as in PMID 23600156; settings: concentration-dependent manner; cited from earlier work
[7] = target: T3, recombinant human CYP1A2 (Homo sapiens, UniProt P05177); test: Kinetic analysis in recombinant human CYP1A2; type: in vitro ADME; settings: substrate 5, 10, 20, 40 μM, 37°C 90 min, n = 3
T3 construct: purchased Corning 456203; host or cells: baculovirus infected insect cells (BTI-TN-5B1-4)
T3 sequence (P05177 2-516 limits assumed): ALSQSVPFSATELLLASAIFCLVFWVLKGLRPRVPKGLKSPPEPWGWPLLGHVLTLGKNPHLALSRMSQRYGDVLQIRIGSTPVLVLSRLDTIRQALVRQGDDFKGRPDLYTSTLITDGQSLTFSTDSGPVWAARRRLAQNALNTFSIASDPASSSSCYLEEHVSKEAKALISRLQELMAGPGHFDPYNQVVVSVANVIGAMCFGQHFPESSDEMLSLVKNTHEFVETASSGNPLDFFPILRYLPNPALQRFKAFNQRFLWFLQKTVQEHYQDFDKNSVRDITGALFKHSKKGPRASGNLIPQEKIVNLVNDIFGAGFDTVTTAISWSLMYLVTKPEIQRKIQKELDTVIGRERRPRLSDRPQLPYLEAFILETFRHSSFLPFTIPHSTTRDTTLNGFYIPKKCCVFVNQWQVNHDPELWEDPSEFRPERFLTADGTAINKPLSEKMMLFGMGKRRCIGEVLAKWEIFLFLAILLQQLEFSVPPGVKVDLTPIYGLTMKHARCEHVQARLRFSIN
Text: as §2, §3
as §4, with “The mean intrinsic clearance rate (CLint) for the in vitro incubation was estimated using Vmax/KM, where Vmax is the maximum velocity and KM is the Michaelis constant.” left out

[8] = recombinant human CYP3A4, substrate 5, 10, 20, 40 μM, 37°C 90 min, n = 3

T1 sequence (P05181 whole entry): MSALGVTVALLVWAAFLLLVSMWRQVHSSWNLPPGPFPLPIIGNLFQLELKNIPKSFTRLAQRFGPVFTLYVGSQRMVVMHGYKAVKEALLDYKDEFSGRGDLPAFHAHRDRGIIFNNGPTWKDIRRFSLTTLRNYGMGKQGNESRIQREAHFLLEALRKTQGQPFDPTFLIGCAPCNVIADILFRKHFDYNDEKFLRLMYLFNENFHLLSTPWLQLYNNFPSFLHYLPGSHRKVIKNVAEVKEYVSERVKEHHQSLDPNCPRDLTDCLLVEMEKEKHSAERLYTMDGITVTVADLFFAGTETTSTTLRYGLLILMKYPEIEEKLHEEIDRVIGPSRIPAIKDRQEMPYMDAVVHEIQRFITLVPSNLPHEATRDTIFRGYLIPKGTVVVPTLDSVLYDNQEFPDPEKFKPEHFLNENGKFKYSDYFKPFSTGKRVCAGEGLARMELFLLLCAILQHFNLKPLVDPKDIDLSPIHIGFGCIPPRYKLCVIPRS

For `CC(C)=CCCC(C)(O)[C@H]1CC[C@]2(C)[C@@H]1[C@H](O)C[C@@H]1[C@@]3(C)CC[C@H](O)C(C)(C)[C@@H]3CC[C@]12C` (stereo in doubt) [protopanaxadiol], the “Effect on PXR” value [1] is given as “no obvious effects”.
For `CC(C)=CCC[C@](C)(O[C@@H]1O[C@H](CO)[C@@H](O)[C@H](O)[C@H]1O)[C@H]1CC[C@]2(C)[C@@H]1[C@H](O)C[C@@H]1[C@@]3(C)CC[C@H](O[C@@H]4O[C@H](CO)[C@@H](O)[C@H](O)[C@H]4O)C(C)(C)[C@@H]3CC[C@]12C` [Ginsenoside F2], the “Effect on PXR” value [1] is listed as “moderate inductive effects”.
In the case of `CC(=O)N1CCN(c2ccc(OCC3COC(Cn4ccnc4)(c4ccc(Cl)cc4Cl)O3)cc2)CC1` (stereo not drawn) [Ketoconazole], the “AUC(0-t) of midazolam” value ([2]; control 2.23 ± 0.64) is reported as 4.19 ± 0.14^∗∗ mg^.L^-1.h, the “AUC(0-∞) of midazolam” value ([2]; control 2.30 ± 0.59) is reported as 4.25 ± 0.15^∗∗ mg^.L^-1.h and the CLz of midazolam ([2]; control 4.66 ± 1.43) is reported as 2.36 ± 0.08^∗∗ L^.h^-1.kg^−1. The Cmax of midazolam ([2]; control 4.84 ± 1.89) was 10.48 ± 0.63^∗∗ mg^.L^−1.
In the case of `CC1(C)CCC[C@](C)([C@H]2CC[C@]3(C)[C@@H]2[C@H](O)C[C@@H]2[C@@]4(C)CC[C@H](O)C(C)(C)[C@@H]4[C@@H](O)C[C@]23C)O1` [Panaxotriol], the “Effect on PXR” value [1] is listed as “inhibitory effects”.
In the case of `CC(C)=CCC[C@](C)(O)[C@H]1CC[C@]2(C)[C@@H]1[C@H](O)C[C@@H]1[C@@]3(C)CC[C@H](O[C@@H]4O[C@H](CO)[C@@H](O)[C@H](O)[C@H]4O[C@@H]4O[C@H](CO)[C@@H](O)[C@H](O)[C@H]4O)C(C)(C)[C@@H]3CC[C@]12C` [Rg3], the “Effect on PXR” value [1] is given as “no obvious effects”.
In the case of `CC(C)=CCC[C@](C)(O)[C@H]1CC[C@]2(C)[C@@H]1[C@H](O)C[C@@H]1[C@@]3(C)CC[C@H](O[C@@H]4O[C@H](CO)[C@@H](O)[C@H](O)[C@H]4O)C(C)(C)[C@@H]3CC[C@]12C` [Rh2], the “Effect on PXR” value [1] is listed as “no obvious effects”.
With `CCN1C[C@]2(COC)[C@H](O)C[C@H](OC)[C@@]34[C@@H]5C[C@@]6(O)[C@H](OC(=O)c7ccccc7)[C@@H]5[C@@](OC(C)=O)([C@@H]([C@H](OC)[C@H]23)[C@@H]14)[C@@H](O)[C@@H]6OC` [aconitine] the “Hepatic metabolism rate after incubation with DDTC, compared with control” value (shortened to “Hepatic metabolism rate … compared with control”) [3] was “no significant change”, the “Hepatic metabolism rate when incubated with KEN, compared with negative control” value [4] was 60.37 ± 5.01% and the Km at 90 min ([5]; human) was 10.1 ± 3.26 µM. The “in vitro mean intrinsic clearance rate by CYP3A4” value ([5]; recombinant human CYP3A4) was 0.0119 mL·nmol CYP^−1·min^−1 and the “Vmax of CYP3A4” value [5, 8] was 0.12 ± 0.01 nmol·mg protein^−1·min^−1.
For `CC(C)=CCC[C@](C)(O[C@@H]1O[C@H](CO[C@@H]2OC[C@@H](O)[C@H](O)[C@H]2O)[C@@H](O)[C@H](O)[C@H]1O)[C@H]1CC[C@]2(C)[C@@H]1[C@H](O)C[C@@H]1[C@@]3(C)CC[C@H](O[C@@H]4O[C@H](CO)[C@@H](O)[C@H](O)[C@H]4O[C@@H]4O[C@H](CO)[C@@H](O)[C@H](O)[C@H]4O)C(C)(C)[C@@H]3CC[C@]12C` [ginsenoside Rb3], the “Effect on PXR” value [1] is listed as “inhibitory effects”.
For `CC(C)=CCC[C@](C)(O[C@@H]1O[C@H](CO)[C@@H](O)[C@H](O)[C@H]1O)[C@H]1CC[C@]2(C)[C@@H]1[C@H](O)C[C@@H]1[C@@]3(C)CC[C@H](O)C(C)(C)[C@@H]3[C@@H](O[C@@H]3O[C@H](CO)[C@@H](O)[C@H](O)[C@H]3O)C[C@]12C` [ginsenoside Rg1], the “CYP3A4 mRNA expression” value [6] is given as “downregulated” and the “Effect on PXR” value [1] is given as “inhibitory effects”.
In the case of `CC(C)=CCC[C@](C)(O)[C@H]1CC[C@]2(C)[C@@H]1[C@H](O)C[C@@H]1[C@@]3(C)CC[C@H](O)C(C)(C)[C@@H]3[C@@H](O[C@@H]3O[C@H](CO)[C@@H](O)[C@H](O)[C@H]3O[C@@H]3O[C@@H](C)[C@H](O)[C@@H](O)[C@H]3O)C[C@]12C` [ginsenoside Rg2], the “Effect on PXR” value [1] is given as “inhibitory effects”.
In the case of `COC[C@@]12CC[C@H](OC)[C@]34C(C([C@H](OC)[C@H]13)[C@]1(OC(C)=O)[C@H]3[C@@H](OC(=O)c5ccccc5)[C@](O)(C[C@H]34)[C@@H](OC)[C@@H]1O)N(C)C2` [hypaconitine], the “Hepatic metabolism rate … compared with control” value [3] is reported as “no significant change”, the “Hepatic metabolism rate when incubated with KEN, compared with negative control” value [4] is reported as 10.11 ± 6.19% and the “in vitro mean intrinsic clearance rate by CYP3A4” value ([5]; recombinant human CYP3A4) is reported as 0.0091 mL·nmol CYP^−1·min^−1.
For `COC[C@]12CN(C)[C@@H]3[C@@H]4[C@H](OC)[C@H]1[C@@]3([C@@H](OC)C[C@H]2O)[C@@H]1C[C@@]2(O)[C@H](OC(=O)c3ccccc3)[C@@H]1[C@]4(OC(C)=O)[C@@H](O)[C@@H]2OC` [mesaconitine], the “Hepatic metabolism rate … compared with control” value [3] was “no significant change”, the “Hepatic metabolism rate when incubated with KEN, compared with negative control” value [4] was 21.67 ± 19.64% and the “in vitro mean intrinsic clearance rate by CYP3A4” value ([5]; recombinant human CYP3A4) was 0.0056 mL·nmol CYP^−1·min^−1. For the same compound, the Km [5, 8] was 131 ± 99.7 µM, the “Vmax of CYP3A4” value [5, 8] was 0.73 ± 0.44 nmol·mg protein^−1·min^−1 and the “Vmax of CYP1A2” value [7] was 0.27 ± 6.57 nmol·mg protein^−1·min^−1.
In the case of `CC(C)=CCC[C@](C)(O)[C@H]1CC[C@]2(C)[C@@H]1[C@H](O)C[C@@H]1[C@@]3(C)CC[C@H](O)C(C)(C)[C@@H]3[C@@H](O)C[C@]12C` [protopanaxatriol], the “Effect on PXR” value [1] is given as “moderate inductive effects”.
For ginsenoside Rf1, the “Effect on PXR” value [1] is given as “no obvious effects”.
For pseudoginsenoside F11, the “Effect on PXR” value [1] is given as “inhibitory effects”.
